In publication PMC11795529, “Simulation of Antral Conditions for Estimating Drug Apparent Equilibrium Solubility after a High-Calorie, High-Fat Meal” (Molecular Pharmaceutics, 2025):
Values after ≈ are worked out from the molar mass of the structure shown. Values joined by “and” are separate entries in the source; they are usually repeats but may differ in a detail not shown here. Equal values may be shown once. Read-outs that look alike come from different tables or passages of the source.

Columns and labels:
[1] = cited from earlier work
[2] = cited from earlier work; for Ketoconazole Concentration, Mean: three samples
[3] = Shake-flask apparent equilibrium solubility in pooled human antral aspirates (HGFfed) collected after a high-calorie, high-fat meal and water; assay type: physicochemical; conditions: pooled antral (gastric) aspirates, fed state
[4] = Shake-flask apparent equilibrium solubility in biorelevant media (FeSSGF-V2, FEDGAS pH 3, FeSSGF-V3); assay type: physicochemical
Protocol: Biorelevant media were prepared on the day of the solubility measurements.
FEDGAS1/2 pH = 3 (Level II biorelevance[5]) was prepared as FEDGAS pH = 3 but with half the amount of FEDGASgel, i.e., by using 7.65 g of FEDGASgel/90 mL.
FEDGAS1/4 pH = 3 (Level II biorelevance[5]) was prepared as FEDGAS pH = 3 but with 1/4 of the amount of FEDGASgel, i.e., by using 3.825 g of FEDGASgel/90 mL.
FEDGASbuffer pH = 3 (Level I biorelevance[5]) was prepared by diluting FEDGAS buffer concentrate with distilled water, as indicated in Table 3.
In Level III FeSSGF-V3, the presence of proteins was simulated using Régilait Skimmed Milk Powder. The high-calorie, high-fat meal consists of up to about 1000 kcal and ≈15% of the total amount of calories is derived from proteins.[15],[16] If 1 g of protein corresponds to 4 kcal, then the meal contains up to about 37 g of proteins. Based on phenol red data, after a high-calorie, high-fat meal and a glass of water 30 min after initiation of meal intake, the impact of resting gastric contents/swallowed saliva/gastric secretions on the dilution of antral contents is substantial; however, dilution of contents occurs predominantly during meal administration.[8] Specifically, when 100 mg of phenol red was included in the meal, the mean phenol red concentration in the antrum fluctuated around 0.06 mg/mL for at least 3 h after initiation of meal administration.[6] It can, therefore, be assumed that the protein concentration in the antral region would be about 37 g × (0.06 mg/mL/100 mg) = 0.0222 g/mL ≈ 22 mg/mL. Since Régilait contains 36% w/w proteins, Régilait Skimmed Milk Powder 6.1% w/v in medium is equivalent to 2.196% (w/v) protein concentration, i.e., ≈ 22 mg/mL.

[5] = Level III FeSSGF-V3HCl and HGFfed15 sample, 37 °C, shake-flask
[6] = set-up: method as in PMID 19644845; conditions: cited from earlier work
[7] = physchem; conditions: for solubility thermodynamic at 4 h: human, pooled antral (gastric) aspirates, fed state, thermodynamic from solid; for solubility: simple aqueous solution

C#C[C@]1(O)CC[C@H]2[C@@H]3CCC4=Cc5oncc5C[C@]4(C)[C@H]3CC[C@@]21C [Danazol]
logP [1]: 4.53 | Danazol Concentration ([2]; Level II FeSSIF, 1st filtration, samples 1, 2, 3 in order): 26.61 µg/mL and 26.22 µg/mL and 26.44 µg/mL | Danazol Concentration ([2]; Level II FeSSIF, 2nd filtration, samples 1, 2, 3 in order): 26.34 µg/mL and 25.39 µg/mL and 25.44 µg/mL | adsorption on regenerated cellulose filter ([2]; Level II FeSSIF): negligible adsorption | % adsorbed ([2]; Level II FeSSIF, samples 1, 2, 3 in order): 1.04% and 3.18% and 3.78%

CC(=O)N1CCN(c2ccc(OCC3COC(Cn4ccnc4)(c4ccc(Cl)cc4Cl)O3)cc2)CC1 (stereo not drawn) [Ketoconazole]
solubility at 4 h ([3]; 37 °C, plasma or biological fluid, thermodynamic from solid, from the four mean values in HGFfed45, 75, 105, 135, read-out: grand mean apparent solubility in HGFfed): 2290 µg/mL (≈ 4.31 mM) | solubility thermodynamic at 4 h ([3]; HGFfed45, 75, 105, 135, 37 °C, 4 h, mean(SD), read-out: mean apparent equilibrium solubility in pooled aspirates, range over the four HGFfed samples): 770 to 3670 µg/mL (≈ 1.45 to 6.91 mM) | times higher than the point estimate of intragastric solubility ([4]; FEDGAS1/2 pH = 3 and FEDGAS1/4 pH = 3 vs 3 mg/mL): more than 1.6 times | times higher than the point estimate of intragastric solubility ([4]; FEDGAS pH = 3 vs 3 mg/mL): more than 2.5 times | percent higher than the point estimate for intragastric solubility ([4]; FEDGASbuffer pH 3 vs 3 mg/mL): 50% | percent lower than the point estimate for intragastric solubility ([4]; Level I FeSSGF-V2 vs 3 mg/mL): 30% | solubility thermodynamic at 4 h ([4]; Level I FeSSGF-V3acetates, pH 3, Level I FeSSGF-V3acetates, initial pH 3, pHeq 3.7): 3200 µg/mL (≈ 6.02 mM) | percent lower than the point estimate for intragastric solubility ([4]; Level II FeSSGF-V2 vs 3 mg/mL): more than 40% | solubility thermodynamic at 4 h ([4]; Level II FeSSGF-V3acetates, pH 3, Level II FeSSGF-V3acetates, initial pH 3, pHeq 3.7): 3450 µg/mL (≈ 6.49 mM) | solubility thermodynamic at 4 h ([4]; Level III FeSSGF-V3HCl, pH 3, Level III FeSSGF-V3HCl, initial pH 3, pHeq 3.8): 3730 µg/mL (≈ 7.02 mM) | percent higher than the estimated point solubility in antral contents ([4]; Level III FeSSGF-V3 prepared with hydrochloric acid): 24% | solubility thermodynamic at 4 h ([4]; biorelevant medium, 37 °C, pH 3, fassgf or other biorelevant, thermodynamic from solid, FEDGAS1/2 pH = 3 (Level II), mean(SD), n = 3): 5650 µg/mL (≈ 10.6 mM) | solubility thermodynamic at 4 h ([4]; biorelevant medium, 37 °C, pH 3, fassgf or other biorelevant, thermodynamic from solid, FEDGAS1/4 pH = 3 (Level II), mean(SD), n = 3): 5070 µg/mL (≈ 9.54 mM) | solubility thermodynamic at 4 h ([4]; biorelevant medium, 37 °C, pH 3, fassgf or other biorelevant, thermodynamic from solid, FEDGAS pH = 3 (Level II), mean(SD), n = 3): 7570 µg/mL (≈ 14.2 mM) | solubility thermodynamic at 4 h ([4]; biorelevant medium, 37 °C, pH 3, fassgf or other biorelevant, thermodynamic from solid, Level II FeSSGF-V2, pH 3, mean(SD), n = 3): 1640 µg/mL (≈ 3.08 mM) | solubility thermodynamic at 4 h ([4]; biorelevant medium, pH 3, FEDGASbuffer pH 3 (Level I), mean(SD), n = 3): 4600 µg/mL (≈ 8.66 mM) | solubility thermodynamic at 4 h ([4]; biorelevant medium, pH 3, Level I FeSSGF-V2, pH 3, mean(SD), n = 3): 2140 µg/mL (≈ 4.03 mM) | aqueous solubility at pHeq as share of measured apparent solubility (HGFfed45): 21% | aqueous solubility at pHeq as share of measured apparent solubility (HGFfed75): 22% | aqueous solubility at pHeq as share of measured apparent solubility (HGFfed105): 18% | aqueous solubility at pHeq as share of measured apparent solubility (HGFfed135): 18% | incubation time within which equilibrium is achieved [5]: ≤ 4 h | intrinsic aqueous solubility [1]: ≈ 2 μg/mL | apparent solubility in human antral fluids ([6]; 30 min after 500 mL Ensure Plus, pHeq 5.7): 630 µg/mL | apparent solubility in human antral fluids ([6]; 60 min after 500 mL Ensure Plus, pHeq 5.1): 3150 µg/mL | apparent solubility in human antral fluids ([6]; 120 min after 500 mL Ensure Plus, pHeq 4.9): 4700 µg/mL | adsorption on regenerated cellulose filter ([2]; aqueous buffers pH 3.5 to 5): negligible adsorption | Ketoconazole Concentration, Mean ([2]; pH 3.5, 1st filtration): 2.8763 mg/mL | Ketoconazole Concentration, Mean ([2]; pH 3.5, 2nd filtration): 2.8250 mg/mL | % adsorbed ([2]; pH 3.5): 1.63% | Ketoconazole Concentration, Mean ([2]; pH 4.0, 1st filtration): 0.9297 mg/mL | Ketoconazole Concentration, Mean ([2]; pH 4.0, 2nd filtration): 0.9288 mg/mL | % adsorbed ([2]; pH 4.0): 0.23% | Ketoconazole Concentration, Mean ([2]; pH 5.0, 1st filtration): 0.0825 mg/mL | Ketoconazole Concentration, Mean ([2]; pH 5.0, 2nd filtration): 0.0775 mg/mL | % adsorbed ([2]; pH 5.0): 6.16% | solubility thermodynamic ([7]; aqueous phase, pH 3.7): 1290 µg/mL (≈ 2.43 mM) | solubility thermodynamic at 4 h ([7]; pH 4, plasma or biological fluid): 3000 µg/mL (≈ 5.65 mM) | solubility thermodynamic at 4 h ([7]; pH 4.1, plasma or biological fluid): 2340 µg/mL (≈ 4.4 mM) | solubility thermodynamic at 4 h ([7]; pH 4.2, plasma or biological fluid): 1470 µg/mL (≈ 2.77 mM) | solubility thermodynamic at 4 h ([7]; pH 4.6, plasma or biological fluid): 610 µg/mL (≈ 1.15 mM) | solubility thermodynamic at 4 h ([7]; plasma or biological fluid): 1850 µg/mL (≈ 3.48 mM) | solubility ([7]; pH 4): 650 µg/mL (≈ 1.22 mM) | solubility ([7]; pH 4.1): 520 µg/mL (≈ 0.978 mM) | solubility ([7]; pH 4.2): 410 µg/mL (≈ 0.771 mM) | solubility ([7]; pH 4.6): 170 µg/mL (≈ 0.32 mM)
